From US10752587B2, “Homobispiperidinyl derivatives as liver X receptor beta agonists, compositions and their use” (Merck Sharp & Dohme Corp., priority 2015, dated 2020)
Like-named read-outs stand apart in the source and are kept apart here.

Assays:
[1] = molecular target: T1, glutathione-S-transferase (GST) tagged LXRalpha LBD (ligand binding domain) (Homo sapiens, UniProt Q13133); assay: LanthaScreen TR-FRET Liver X Receptor Coactivator Assay, co-activator recruitment to LXRalpha LBD; format: biochemical
T1 construct: purchased Invitrogen pv4655
T1 sequence (Q13133 209-447 limits assumed): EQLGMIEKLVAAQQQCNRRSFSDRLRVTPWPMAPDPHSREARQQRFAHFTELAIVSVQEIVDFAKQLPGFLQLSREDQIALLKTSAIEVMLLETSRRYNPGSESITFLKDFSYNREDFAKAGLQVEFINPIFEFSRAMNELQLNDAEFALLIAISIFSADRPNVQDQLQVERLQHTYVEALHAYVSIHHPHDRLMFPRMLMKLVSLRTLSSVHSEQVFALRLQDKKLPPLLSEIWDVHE
How it was run: (§1)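 GST-tagged LBD added to test compound, then fluorescein-labelled coactivator peptide plus terbium anti-GST antibody; incubated at room temperature, TR-FRET read. Potency given as inflection point and efficacy as Emax relative to reference dual agonist T0901317.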

[2] = molecular target: T2, glutathione-S-transferase (GST) tagged LXRbeta LBD (ligand binding domain) (Homo sapiens, UniProt P55055); assay: LanthaScreen TR-FRET Liver X Receptor Coactivator Assay, co-activator recruitment to LXRbeta LBD; format: biochemical
T2 construct: purchased Invitrogen pv4658.pps
T2 sequence (P55055 222-460 limits assumed): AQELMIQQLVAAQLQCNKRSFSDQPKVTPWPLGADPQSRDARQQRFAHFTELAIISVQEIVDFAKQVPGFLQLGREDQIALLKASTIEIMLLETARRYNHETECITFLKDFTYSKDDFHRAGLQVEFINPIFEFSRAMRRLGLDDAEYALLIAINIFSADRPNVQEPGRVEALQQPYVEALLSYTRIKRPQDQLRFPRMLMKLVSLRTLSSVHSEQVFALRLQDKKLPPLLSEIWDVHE
How it was run: as §1

[3] = efficacy at max dose, in relation to reference dual agonist T0901317, read-out: LXR alpha Activity @ max dose (%)
[4] = potency (Inflection Point, IP), co-activator recruitment to LXRalpha LBD, in relation to T0901317, read-out: LXR alpha IP
[5] = efficacy at max dose, in relation to reference dual agonist T0901317, read-out: LXR beta Activity @ max dose (%)
[6] = potency (Inflection Point, IP), co-activator recruitment to LXRbeta LBD, in relation to T0901317, read-out: LXR beta IP
[7] = potency (Inflection Point, IP), co-activator recruitment to LXRalpha LBD, in relation to T0901317

Row | Compound | Emax [1, 3] | EC50 [1, 4] | Emax [2, 5] | EC50 [2, 6] | LXR alpha IP (nM) [1, 7] | EC50 ([1]; co-activator recruitment to GST-LXRalpha LBD, TR-FRET, read-out: LXR alpha IP (Inflection Point, potency)) | Emax ([1]; efficacy in relation to reference dual agonist T0901317, read-out: LXR alpha Activity @ max dose) | EC50 ([2]; co-activator recruitment to GST-LXRbeta LBD, TR-FRET, read-out: LXR beta IP (Inflection Point, potency)) | Emax ([2]; efficacy in relation to reference dual agonist T0901317, read-out: LXR beta Activity @ max dose)
1 | O=C(c1ccc(N2CCC(CC3CCN(C(=O)[C@](O)(c4ccccc4)C(F)(F)F)CC3)CC2)cc1Cl)N1CCC(n2ccnc2)C1 (stereo partly drawn) [Example 4-19, (2R)-3-(4-{[1-(3-chloro-4-{[3-(1H-imidazol-1-yl)pyrrolidin-1-yl]carbonyl}phenyl)piperidin-4-yl]methyl}piperidin-1-yl)-1,1,1-trifluoro-3-oxo-2-phenylpropan-2-ol] | 25% | 765 nM | 43% | 141 nM |  |  |  |  | 
2 | COCCN(C)C(=O)c1ccc(N2CCC(CC3CCN(C(=O)[C@](O)(c4ccccc4)C(F)(F)F)CC3)CC2)cc1Cl [Example 4-9] | 31% | 195 nM | 69% | 17 nM |  |  |  |  | 
3 | CN(C)C(=O)c1ccc(N2CCC(CC3CCN(C(=O)[C@@](O)(c4ccccc4)C(F)(F)F)CC3)CC2)cc1 [Example 2-127, N,N-dimethyl-4-[4-({1-[(2S)-3,3,3-trifluoro-2-hydroxy-2-phenyl-propanoyl]piperidin-4-yl}methyl)piperidin-1-yl]benzamide] | 9% |  | 68% | 877 nM | NO IP |  |  |  | 
4 | Cc1cc(N2CCC(CC3CCN(C(=O)OC(C)(C)C)CC3)CC2)ccc1C(=O)N(C)C [Example 1-2, tert-butyl 4-({1-[4-(dimethylcarbamoyl)-3-methylphenyl]piperidin-4-yl}methyl)piperidine-1-carboxylate] | 13% |  | 58% | 240 nM | NO IP |  |  |  | 
5 | CC(C)Oc1cccc([C@@](O)(C(=O)N2CCC(CC3CCN(c4ccc(C(=O)N(C)C)cc4)CC3)CC2)C(F)(F)F)c1 [Example 2-135, N,N-dimethyl-4-{4-[(1-{(2R)-3,3,3-trifluoro-2-hydroxy-2-[3-(1-methylethoxy)phenyl]propanoyl}piperidin-4-yl)methyl]piperidin-1-yl}benzamide] | 3% |  | 63% | 44 nM | NO IP |  |  |  | 
6 | CNC(=O)c1ccc(N2CCC(CC3CCN(C(=O)C(O)(c4cccc(C#N)c4)C(F)(F)F)CC3)CC2)nc1Cl (stereo not shown) [Example 7-144, 2-chloro-6-[4-({1-[2-(3-cyanophenyl)-3,3,3-trifluoro-2-hydroxypropanoyl]piperidin-4-yl}methyl)piperidin-1-yl]-N-methylpyridine-3-carboxamide] | 61% | 215 nM | 107% | 20 nM |  |  |  |  | 
7 | O=C(c1ccc(N2CCC(CC3CCN(C(=O)[C@](O)(c4cc(Cl)cc(Cl)c4)C(F)(F)F)CC3)CC2)cc1Cl)N1CCC[C@@H]1CO [Example 4-23, (2R)-3-(4-{[1-(3-chloro-4-{[(2R)-2-(hydroxymethyl)pyrrolidin-1-yl]carbonyl}phenyl)piperidin-4-yl]methyl}piperidin-1-yl)-2-(3,5-dichlorophenyl)-1,1,1-trifluoro-3-oxopropan-2-ol] | 4% |  | 30% | 51 nM | NO IP |  |  |  | 
8 | CN(C)C(=O)c1cnc(N2CCC(CC3CCN(C(=O)[C@](O)(c4ccccc4)C(F)(F)F)CC3)CC2)cc1Cl [Example 7-2, 4-chloro-N,N-dimethyl-6-[4-({1-[(2R)-3,3,3-trifluoro-2-hydroxy-2-phenylpropanoyl]piperidin-4-yl}methyl)piperidin-1-yl] pyridine-3-carboxamide] | 36% |  | 32% | 4670 nM | NO IP |  |  |  | 
9 | CN(C)C(=O)c1ccc(N2CCC(CC3CCN(S(=O)(=O)c4cccs4)CC3)CC2)cc1Cl [Example 13-4, 2-chloro-N,N-dimethyl-4-(4-{[1-(thiopen-2-ylsulfonyl)piperidin-4-yl]methyl}piperidin-1-yl)benzamide] |  |  |  |  |  | 264 nM | 43% | 26 nM | 67%
10 | CS(=O)(=O)c1cccc(N2CCC(CC3CCN(C(=O)[C@](O)(c4ccccc4)C(F)(F)F)CC3)CC2)c1 [Example 2-74, (2R)-1,1,1-trifluoro-3-[4-({1-[3-(methylsulfonyl)phenyl]piperidin-4-yl}methyl)piperidin-1-yl]-3-oxo-2-phenylpropan-2-ol] | 38% | 444 nM | 87% | 39 nM |  |  |  |  | 
11 | CO[C@](C(=O)N1CCC(OC2CCN(c3ccc(C(=O)N(C)C)c(Cl)c3)CC2)CC1)(c1ccccc1)C(F)(F)F [Example 2-20, 2-chloro-N,N-dimethyl-4-[4-({1-[(2S)-3,3,3-trifluoro-2-methoxy-2-phenylpropanoyl]piperidin-4-yl}oxy)piperidin-1-yl]benzamide] | 4% |  | 81% | 335 nM | NO IP |  |  |  | 
12 | CN(C)C(=O)c1ccc(N2CCC(CC3CCN(C(=O)C(O)(c4cccc(C#N)c4)C(F)(F)F)CC3)CC2)nc1Cl (stereo not shown) [Example 7-78, 2-chloro-6-[4-({1-[2-(3-cyanophenyl)-3,3,3-trifluoro-2-hydroxypropanoyl]piperidin-4-yl}methyl)piperidin-1-yl]-N,N-dimethylpyridine-3-carboxamide] | 31% | 298 nM | 95% | 6 nM |  |  |  |  | 
13 | COc1cc(F)cc([C@@](O)(C(=O)N2CCC(CC3CCN(c4ccc(C(=O)N(C)C)c(C)c4)CC3)CC2)C(F)(F)F)c1 [Example 2-152, N,N,2-trimethyl-4-[4-({1-[(2R)-3,3,3-trifluoro-2-(3-fluoro-5-methoxyphenyl)-2-hydroxy-propanoyl]piperidin-4-yl}methyl)piperidin-1-yl]benzamide] | 18% |  | 74% | 11 nM | NO IP |  |  |  | 
14 | COc1cccc([C@@](O)(C(=O)N2CCC(C)(CC3CCN(c4ccc(C(=O)N(C)C)c(Cl)n4)CC3)CC2)C(F)(F)F)c1 [Example 7-51, 2-chloro-N,N-dimethyl-6-[4-({4-methyl-1[(2R)-3,3,3-trifluoro-2-hydroxy-2-(3-methoxyphenyl)propanoyl]piperidin-4-yl}methyl)piperidin-1-yl]pyridine-3-carboxamide] | 4% |  | 35% | 5 nM | NO IP |  |  |  | 
15 | CN(C)C(=O)c1ccc(N2CCC(CC3CCN(C(=O)[C@](O)(c4cccc(OC(F)F)c4)C(F)(F)F)CC3)CC2)cc1 [Example 2-134, 4-{4-[(1-{(2R)-2-[3-(difluoro-methoxy)phenyl]-3,3,3-trifluoro-2-hydroxy-propanoyl}piperidin-4-yl)methyl]piperidin-1-yl}-N,N-dimethyl-benzamide] | 18% | 1980 nM | 67% | 120 nM |  |  |  |  | 
16 | CCC(O)(C(=O)N1CCC(CC2CCN(c3ccc(C(=O)N(C)C)c(Cl)c3)CC2)CC1)c1ccccc1 (stereo not shown) [Example 2-32, 2-chloro-4-(4-{[1-(2-hydroxy-2-phenyl-butanoyl)piperidin-4-yl]methyl}piperidin-1-yl)-N,N-dimethyl-benzamide] | 19% | 1420 nM | 55% | 72 nM |  |  |  |  | 
17 | CCOc1cccc([C@@](O)(C(=O)N2CCC(SC3CCN(c4ccc(C(=O)NC)c(Cl)n4)CC3)CC2)C(F)(F)F)c1 [Example 11-2, 2-chloro-6-[4-({1-[(2R)-2-(3-ethoxyphenyl)-3,3,3-trifluoro-2-hydroxypropanoyl]-piperidin-4-yl}-sulfanyl)piperidin-1-yl]-N-methyl-pyridine-3-carboxamide] | 10% |  | 95% | 22 nM | NO IP |  |  |  | 
18 | CN(C)C(=O)c1ccc(N2CCC(CC3CCN(C(=O)[C@](O)(c4cccc(C5CC5)c4)C(F)(F)F)CC3)CC2)cc1Cl [Example 2-96, 2-chloro-4-[4-({1-[(2R)-2-(3-cyclopropyl-phenyl)-3,3,3-trifluoro-2-hydroxy-propanoyl]piperidin-4-yl}methyl)piperidin-1-yl]-N,N-dimethyl-benzamide] | 20% | 66 nM | 63% | 4 nM |  |  |  |  | 
19 | CN(C)C(=O)c1ccc(N2CCC(CC3CCN(C(=O)[C@](O)(c4cccc(C#N)c4)C(F)(F)F)CC3)CC2)cc1Cl [Example 2-88, 2-chloro-4-[4-({1-[(2R)-2-(3-cyanophenyl)-3,3,3-trifluoro-2-hydroxy-propanoyl]piperidin-4-yl}methyl)piperidin-1-yl]-N,N-dimethyl-benzamide] | 29% | 137 nM | 79% | 11 nM |  |  |  |  | 
